Source: paper PMC10552532, “Evaluation of anti-cancer effects of carnosine and melittin-loaded niosomes in MCF-7 and MDA-MB-231 breast cancer cells” (Frontiers in Pharmacology, 2023)

Assays:
[1] = In vitro drug release from dialysis bag; format: physicochemical; details: first 6 h, pH 5.4, 37°C
Description: A dialysis bag (MWCO = 12 kDa) was used to compare 2 mL of free drugs, Car-NIO and Mel-NIO for drug release (in vitro). This bag was placed in a phosphate buffered saline (PBS) solution (50 mL, 1X, pH = 5.4) with slow stirring (50 rpm) at 37°C. At certain intervals, a portion of the PBS solution was removed and replaced with a new aliquot.

[2] = tested on: human epidermal growth factor receptor 2-negative, metastatic breast cancer and a hereditary BRCA mutation; design: method as in Tutt et al., 2021; details: olaparib monotherapy rather than the standard treatment; ref Tutt et al., 2021; cited from earlier work
MDA-MB-231 cells [3] = experiment: Cell cycle distribution by flow cytometry (propidium iodide); format: cell-based; details: MDA-MB-231, 48 h at IC50 concentration
Description: (§1) Overnight, the cells were cultured in 100-mm plates at a density of 2 × 10^6 cells/mL per well using fresh culture media. Treatment with Car-NIO (48.83, 51.4 μM), Mel-NIO (21.23, 43.65 μM), and olaparib (23.31, 32.55 μM) for 48 h began the next day. After harvesting, the cells were fixed in 70% ethanol at […] for 12 h. After that, the cells were exposed to RNase (10 mg/mL) and propidium iodide (50 μg/mL) for 30 min. The cell cycle distribution was analyzed using flow cytometry, and the data were analyzed using FlowJo (TreeStar, Ashland, OR, United States) ([Mei et al., 2019]).

MCF-7 cells [4] = experiment: as above; format: cell-based; details: MCF-7, 48 h at IC50 concentration
Description: as §1

MDA-MB-231 cells [5] = experiment: MTT cytotoxicity assay; format: cell-based; details: Homo sapiens, MDA-MB-231, 48 h, read-out: IC50 (viability)
Description: (§2) The 3-(4,5-dimethylthiazol-2-yl)-2,5-diphenyl-2H-tetrazolium bromide (MTT) assay is a colorimetric method that uses the transformation of yellow MTT into purple formazan. The following procedures were carried out in a clean environment using MTT Assay Kit (Cell Proliferation) (catalog number: ab211091, Abcam, United Kingdom), with the use of a Laminar flow cabinet meeting biosafety standard II (Baker, SG403INT, Sanford, ME, United States), l0^4 cells/well were subjected to varying doses of Car-NIO (5, 10, 25, 50, and 100 μM) ([Tehrani et al., 2018]) and Mel-NIO (5, 10, 25, 50, and 100 μM) ([Yaacoub et al., 2021]) and olaparib (5, 10, 25, 50, and 100 μM) ([Ashmawy et al., 2017]). After 48 h, we added 2.5 μg/mL of MTT to each well and incubated the plates at 37°C for another 4 h. After the formation of formazan crystals, 10% sodium dodecyl sulfate (200 μL/well) was used to dissolve the crystals. We measured the absorbance at 595 nm, and a positive control that causes 100% mortality under the same conditions was utilized. Using the following formula, the change in viability was given as a percentage was calculated: Cytotoxicity %=Extract reading/Negative control reading x100
(§3) Viability % = 100- Cytotoxicity%, The impact of each treatment is measured by its IC50 (the concentration at which 50% of the viability is inhibited).

MCF-7 cells [6] = experiment: MTT cytotoxicity assay; format: cell-based; details: Homo sapiens, MCF7, MCF-7, 48 h, read-out: IC50 (viability)
Description: as §2, §3

MDA-MB-231 cells [7] = experiment: Lipid peroxidation (MDA) detection; format: cell-based; details: MDA-MB-231, 48 h at IC50 concentration, vs untreated cancer cells
Description: (§4) For this assay, the cells (2 × 10^6 cells/mL) were seeded onto 96-well culture plates to determine lipid peroxidation levels. Following a 48-h incubation with Car-NIO (48.83, 51.4 μM), Mel-NIO (21.23, 43.65 μM), and olaparib (23.31, 32.55 μM), cells were collected and washed twice with phosphate-buffered saline. The cells were harvested with a sonicator probe (VCX-130 W, Newtown, United States) on ice, and then disrupted by ultra-sonication for 5 s. Following the manufacturer’s guidelines for best results, the malondialdehyde (MDA) was detected in the cell extract using the MDA test kit (catalog number: ab287797, Abcam, United Kingdom). The microplate reader was used to determine the MDA concentration at a wavelength of 532 nm (Tecan, Mannedorf, Switzerland) ([Gérard-Monnier et al., 1998]).

MCF-7 cells [8] = experiment: Lipid peroxidation (MDA) detection; format: cell-based; details: MCF-7, 48 h at IC50 concentration, vs untreated cancer cells
Description: as §4

MDA-MB-231 cells [9] = experiment: Quantitative RT-PCR of marker genes; format: cell-based; details: MDA-MB-231, vs untreated cancer cells
Excerpt: (§5) The cells’ total RNA was extracted with the help of the RNA Mini Kit from Ambion by Life Technologies by Thermo Scientific (catalog number: 12183018A). To ensure the integrity of the RNA samples, we used a NanoDrop® ND-1000 Spectrophotometer from NanoDrop Technologies in Wilmington, Delaware, United States A High Capacity cDNA Reverse Transcription Kit (catalog number: 4374966) from Thermo Scientific was then used to amplify the cDNA. The Maxima SYBR Green qPCR Master Mix (2X) kit from Thermo Scientific, (catalog number: K0251), was used for real-time PCR amplification ([Shehata et al., 2018]). The housekeeping GADPH (for mRNA) or U6 (for miRNA) were used as a standard. The 2^−∆∆ct formula was used to calculate the levels of target gene expression ([Livak and Schmittgen, 2001]). Table 1 contains the sequences of the desired gene primers.

MCF-7 cells [10] = experiment: Quantitative RT-PCR of marker genes; format: cell-based; details: MCF-7, vs untreated cancer cells
Excerpt: as §5

`NCCC(=O)N[C@@H](Cc1cnc[nH]1)C(=O)O` [carnosine, β-alanyl-L-histidine] gave a drug release [1] of 43%.

For `O=C(c1cc(Cc2n[nH]c(=O)c3ccccc23)ccc1F)N1CCN(C(=O)C2CC2)CC1` [olaparib], the “extension of median progression-free survival” value [2] is given as 2.8 months, the “cells in G0/1 phase” value (MDA-MB-231 cells [3]) is given as 83.0% and the “cells in S phase” value (MDA-MB-231 cells [3]) is given as 3.2%. For the same compound, the “cells in G0/1 phase” value (MCF-7 cells [4]) was 63.2%, the “cells in S phase” value (MCF-7 cells [4]) was 8.6% and the IC50 (MDA-MB-231 cells [5]) was 32.5 µM. The IC50 (MCF-7 cells [6]) was 23.3 µM, the MDA level (MDA-MB-231 cells [7]) was “significant downregulation” and the MDA level (MCF-7 cells [8]) was “significant downregulation”. For the same compound, the “expression level of miRNA-183” value (MDA-MB-231 cells [9]; U6 as standard) was “significant downregulation”, the “expression level of Bcl2” value (MDA-MB-231 cells [9]; relative to GADPH) was “significant downregulation” and the “expression level of FOXO3” value (MDA-MB-231 cells [9]; relative to GADPH) was “significantly upregulated”. For the same compound, the “expression level of PARP 1” value (MDA-MB-231 cells [9]; relative to GADPH) was “significant downregulation”, the “expression level of PDCD4” value (MDA-MB-231 cells [9]; relative to GADPH) was “significantly upregulated” and the “mRNA expression of Bax” value (MDA-MB-231 cells [9]; relative to GADPH) was “significant upregulation”. For the same compound, the “mRNA expression of P53” value (MDA-MB-231 cells [9]; relative to GADPH) was “significant upregulation”, the “mRNA expression of caspase-3” value (MDA-MB-231 cells [9]; relative to GADPH) was “significant upregulation” and the “mRNA expression of caspase-9” value (MDA-MB-231 cells [9]; relative to GADPH) was “significant upregulation”. For the same compound, the “expression level of miRNA-183” value (MCF-7 cells [10]; U6 as standard) was “significant downregulation”, the “expression level of Bcl2” value (MCF-7 cells [10]; relative to GADPH) was “significant downregulation” and the “expression level of FOXO3” value (MCF-7 cells [10]; relative to GADPH) was “significantly upregulated”. For the same compound, the “expression level of PARP 1” value (MCF-7 cells [10]; relative to GADPH) was “significant downregulation”, the “expression level of PDCD4” value (MCF-7 cells [10]; relative to GADPH) was “significantly upregulated” and the “mRNA expression of Bax” value (MCF-7 cells [10]; relative to GADPH) was “significant upregulation”. The “mRNA expression of P53” value (MCF-7 cells [10]; relative to GADPH) was “significant upregulation”, the “mRNA expression of caspase-3” value (MCF-7 cells [10]; relative to GADPH) was “significant upregulation” and the “mRNA expression of caspase-9” value (MCF-7 cells [10]; relative to GADPH) was “significant upregulation”.

melittin gave a drug release [1] of 72.3%.
